34 molecules from US4959363A, “Quinolonecarboxamide compounds, their preparation and use as antivirals” (Sterling Drug Inc., priority 1989, dated 1990) can be followed below.

On the set-up of series [1]: species or system albino mice. The note with it: mouse.
Series [2] is described as follows: In vitro maximum tolerated dose (MTL), Vero cells. The note with it: monkey, In Vitro. In kind it is cell-based, African Green Monkey.
The test system of a further series is herpes simplex virus. As to the kind of experiment: In Vivo - Intravaginal Herpes Virus Infection in Mice. Set-up: species or system albino mice. Conditions: Mus musculus, 336 h, oral or intraperitoneal, b.i.d. 5 days, NA = Not active at dose levels tested, read-out: In Vivo MED (Minimum effective dose). On the procedure: In Vivo - Intravaginal Herpes Virus Infection in Mice
Approximately 1 hr. prior to infection, the vaginas of 15 gm albino mice were swabbed with cotton saturated with 0.1 N NaOH to remove vaginal secretions and to irritate the vaginal mucosa slightly. At the proper time, 0.05 ml of an appropriate dose of herpes simplex virus was placed deep in the vagina. Starting 2.5 hrs. prior to infection, the mice were medicated either orally or intraperitoneally. Medication was continued daily for a total of 5 days on a b.i.d. regimen. The test was terminated after 14 days. A comparison of the number of surviving mice and/or extension of survival was made at the end of the test. The criterion for activity was a statistically significant extension of the average survival time of the test group over that of the control mice in two experiments.

A value given as a limit tells only on which side of the number the result lay.

On to `CCCCn1cc(C(N)=O)c(=O)c2ccc(-c3ccncc3)cc21` [Example 17, 1-Butyl-1,4-dihydro-4-oxo-7-(4-pyridinyl)-3-quinolinecarboxamide], for which the “In Vivo MTL (Maximum tolerated dose)” value in series [1] is 50. The MNTC at 72 h in series [2] (vero cells) came to 6.2 µg/mL.
In the case of `Cc1ccc(-n2cc(C(N)=O)c(=O)c3ccc(-c4ccncc4)cc32)cc1` [Example 33, 1,4-Dihydro-1-(4-methylphenyl)-7-(4-pyridinyl)-4-oxo-3quinolinecarboxamide], in series [1], the “In Vivo MTL (Maximum tolerated dose)” value was 50. The molecule further yielded an MNTC at 72 h in series [2] (vero cells) greater than 25 µg/mL.
For `CCn1cc(C(N)=O)c(=O)c2ccc(-c3ccncc3)cc21` [Example 6, 1-Ethyl-1,4-dihydro-4-oxo-7-(4-pyridinyl)-3-quinolinecarboxamide], the “In Vivo MTL (Maximum tolerated dose)” value in series [1] amounted to 50. For the same molecule, in the series with herpes simplex virus, the minimal effective dose was determined as 50 mg/kg/day. Moreover, the MNTC at 72 h in series [2] (vero cells) came to 12.5 µg/mL.
In the case of `NC(=O)c1cn(-c2ccc(F)cc2F)c2cc(-c3ccncc3)ccc2c1=O` [Example 15, 1-(2,4-Difluorophenyl)-1,4-dihydro-4-oxo-7-(4-pyridinyl)-3-quinolinecarboxamide], in series [1], the “In Vivo MTL (Maximum tolerated dose)” value is less than 25. This molecule also returned an MNTC at 72 h in series [2] (vero cells) of 3.1 µg/mL.
In series [2] (vero cells), `CCn1cc(C(N)=O)c(=O)c2cc(F)c(-c3ccncc3)cc21` [Example 25, 1-Ethyl-6-fluoro-1,4-dihydro-4-oxo-7-(4-pyridinyl)-3quinolinecarboxamide] returned an MNTC at 72 h greater than 100 µg/mL.
Turning to `Cn1cc(C(N)=O)c(=O)c2ccc(-c3ccncc3)cc21` [Example 16, 1,4-Dihydro-1-methyl-4-oxo-7-(4-pyridinyl)-3-quinolinecarboxamide], the “In Vivo MTL (Maximum tolerated dose)” value in series [1] was determined as 25. The molecule also had an MNTC at 72 h in series [2] (vero cells) greater than 25 µg/mL.
With `NC(=O)c1cn(-c2ccc(Cl)cc2)c2cc(-c3ccncc3)ccc2c1=O` [Example 32, 1-(4-Chlorophenyl)-1,4-dihydro-7-(4-pyridinyl)-4-oxo-3quinolinecarboxamide], in the series with herpes simplex virus, the minimal effective dose was 50 mg/kg/day. In series [2] (Vero cells), this molecule displayed an MNTC at 72 h greater than 25 µg/mL.
Take `CCn1cc(C(=O)NN)c(=O)c2ccc(-c3ccncc3)cc21` [Example 29, 1-Ethyl-1,4-dihydro-4-oxo-7-(4-pyridinyl)-3-quinolinecarboxylic acid hydrazide]: the “In Vivo MTL (Maximum tolerated dose)” value in series [1] is 100. The MNTC at 72 h in series [2] (vero cells) worked out at 50 µg/mL.
On to `NC(=O)c1cn(-c2ccccc2)c2cc(-c3ccncc3)ccc2c1=O` [Example 21, 1,4-Dihydro-4-oxo-1-phenyl-7-(4-pyridinyl)-3-quinolinecarboxamide], for which, in series [2] (vero cells), the MNTC at 72 h amounted to 6.25 µg/mL.
Consider `CCN(CC)CNC(=O)c1cn(-c2ccc(F)cc2)c2cc(-c3ccncc3)ccc2c1=O` [Example 3, N-(Diethylaminomethyl)-1-(4-fluorophenyl)-1,4-dihydro-4-oxo-7-(4-pyridinyl)-3-quinolinecarboxamide], for which the “In Vivo MTL (Maximum tolerated dose)” value in series [1] was 100. In addition, the minimal effective dose in the series with herpes simplex virus came out at 50 mg/kg/day. Moreover, in series [2] (vero cells), the MNTC at 72 h is 12.5 µg/mL.
Take `NC(=O)c1cn(-c2ccc(F)cc2)c2cc(-c3ccccc3)ccc2c1=O` [Example 44, 1,4-Dihydro-1-(4-fluorophenyl)-4-oxo-7-phenyl-3-quinolinecarboxamide]: the “In Vivo MTL (Maximum tolerated dose)” value in series [1] is greater than 200. Besides, in series [2] (vero cells), the MNTC at 72 h is 12.5 µg/mL.
In series [2] (vero cells), `O=C(NCN1CCCCC1)c1cn(-c2ccc(F)cc2)c2cc(-c3ccncc3)ccc2c1=O` [Example 5, N-(1-Piperidinylmethyl)-1-(4-fluorophenyl)-1,4-dihydro-4-oxo-7-(4-pyridinyl)-3-quinolinecarboxamide] displayed an MNTC at 72 h greater than 12.5 µg/mL.
Turning to `CCn1cc(C(=O)NO)c(=O)c2ccc(-c3ccncc3)cc21` [Example 30, 1-Ethyl-1,4-dihydro-N-hydroxy-4-oxo-7-(4-pyridinyl)-3quinolinecarboxamide], in series [1], the “In Vivo MTL (Maximum tolerated dose)” value is recorded as 100. The molecule also displayed an MNTC at 72 h in series [2] (vero cells) of 25 µg/mL.
With `CCn1cc(C(N)=O)c(=O)c2ccc(-c3ccno3)cc21` [Example 24c, 1-Ethyl-1,4-dihydro-7-(5-isoxazolyl)-4-oxo-3-quinolinecarboxamide], in series [1], the “In Vivo MTL (Maximum tolerated dose)” value was greater than 200. Besides, in series [2] (vero cells), the MNTC at 72 h was found to be 12.5 µg/mL.
As to `COc1ccc(-n2cc(C(N)=O)c(=O)c3ccc(-c4ccncc4)cc32)cc1` [Example 8, 1,4-Dihydro-1-(4-methoxyphenyl)-4-oxo-7-(4-pyridinyl)-3quinolinecarboxamide], the “In Vivo MTL (Maximum tolerated dose)” value in series [1] worked out at 50. This molecule also registered an MNTC at 72 h in series [2] (vero cells) greater than 25 µg/mL.
Turning to `NC(=O)c1cn(Cc2ccc(Cl)c(Cl)c2)c2cc(-c3ccncc3)ccc2c1=O` [Example 12, 1-(3,4-Dichlorobenzyl)-1,4-dihydro-4-oxo-7-(4-pyridinyl)-3-quinolinecarboxamide], the “In Vivo MTL (Maximum tolerated dose)” value in series [1] was greater than 100. The same molecule gave an MNTC at 72 h in series [2] (vero cells) greater than 100 µg/mL.
For `CCn1cc(C(=O)NN)c(=O)c2ccc(-c3ccccc3)cc21` [Example 36, 1-Ethyl-1,4-dihydro-4-oxo-7-phenyl-3-quinolinecarboxylic acid hydrazide], in that order: greater than 200 and 25 µg/mL.
For `NC(=O)c1cn(C2CC2)c2cc(-c3ccncc3)ccc2c1=O` [Example 11, 1-Cyclopropyl-1,4-dihydro-4-oxo-7-(4-pyridinyl)-3-quinolinecarboxamide], in that order: 25 and 25 µg/mL.
For `CCn1cc(C(N)=O)c(=O)c2ccc(-c3cccnc3)cc21` [Example 27b, 1-Ethyl-1,4-dihydro-4-oxo-7-(3-pyridinyl)-3-quinolinecarboxamide], in that order: 100 and 50 µg/mL.
Take `NC(=O)c1cn(-c2ccc(F)cc2)c2cc(-c3ccncc3)c(F)cc2c1=O` [Example 48c]: the “In Vivo MTL (Maximum tolerated dose)” value in series [1] was greater than 100. In series [2] (vero cells), the MNTC at 72 h is 6.25 µg/mL.
`Cc1cc(-c2ccc3c(=O)c(C(N)=O)cn(-c4ccc(F)cc4)c3c2)on1` [Example 22f]: the “In Vivo MTL (Maximum tolerated dose)” value in series [1] is greater than 200. The molecule further yielded an MNTC at 72 h in series [2] (vero cells) greater than 100 µg/mL.
Molecule `Cc1ccc(-n2cc(C(N)=O)c(=O)c3ccc(-c4ccncc4)cc32)cc1C` [Example 13, 1,4-Dihydro-1-(3,4-dimethylphenyl)-4-oxo-7-(4-pyridinyl)-3-quinolinecarboxamide] came in with an MNTC at 72 h in series [2] (vero cells) greater than 100 µg/mL.
On the same count and under the same terms, with `NC(=O)c1c(O)n(-c2ccc(F)cc2)c2cc(-c3ccncc3)ccc2c1=O` [Example 47e, 1,4-Dihydro-1-(4-fluorophenyl)-2-hydroxy-7-(4-pyridinyl)4-oxo-3-quinolinecarboxamide] the figure was greater than 100 µg/mL; with `CCCn1cc(C(N)=O)c(=O)c2ccc(-c3ccncc3)cc21` [Example 18, 1,4-Dihydro-4-oxo-1-propyl-7-(4-pyridinyl)-3-quinolinecarboxamide], 6.25 µg/mL.
Take `CCn1cc(C(N)=O)c(=O)c2ccc(-c3cc(C)nc(C)c3)cc21` [Example 7, 1-Ethyl-1,4-dihydro-4-oxo-7-(2,6-dimethyl-4-pyridinyl)-3quinolinecarboxamide]: the “In Vivo MTL (Maximum tolerated dose)” value in series [1] was determined as 25. The MNTC at 72 h in series [2] (vero cells) came out at 12.5 µg/mL.
`CC(C)(C)c1ccc(-n2cc(C(N)=O)c(=O)c3ccc(-c4ccncc4)cc32)cc1` [Example 9, 1-[4-(1,1-Dimethylethyl)phenyl]-1,4-dihydro-4-oxo-7-(4-pyridinyl)-3-quinolinecarboxamide] yielded an MNTC at 72 h in series [2] (vero cells) greater than 25 µg/mL.
For the molecule `NC(=O)c1cn(-c2ccc(C(F)(F)F)cc2)c2cc(-c3ccncc3)ccc2c1=O` [Example 35, 1,4-Dihydro-7-(4-pyridinyl)-1-(4-trifluoromethylphenyl)-4-oxo-3-quinolinecarboxamide], the “In Vivo MTL (Maximum tolerated dose)” value in series [1] is given as 50. In addition, the MNTC at 72 h in series [2] (vero cells) was greater than 100 µg/mL.
As for `C=CCn1cc(C(N)=O)c(=O)c2ccc(-c3ccncc3)cc21` [Example 19, 1,4-Dihydro-4-oxo-1-(2-propenyl)-7-(4-pyridinyl)-3-quinolinecarboxamide], the “In Vivo MTL (Maximum tolerated dose)” value in series [1] is listed as less than 50. Moreover, the MNTC at 72 h in series [2] (vero cells) worked out at 6.25 µg/mL.
For the molecule `CCn1c(N)c(C(N)=O)c(=O)c2ccc(-c3ccncc3)cc21` [Example 40b, 2-Amino-1,4-dihydro-1-ethyl-4-oxo-7-(4-pyridinyl)-3quinolinecarboxamide], the “In Vivo MTL (Maximum tolerated dose)” value in series [1] is listed as greater than 100. This molecule showed an MNTC at 72 h in series [2] (vero cells) greater than 12.5 µg/mL.
Regarding `CCn1cc(C(N)=O)c(=O)c2ccc(-c3ccccn3)cc21` [Example 20, 1-Ethyl-1,4-dihydro-4-oxo-7-(2-pyridinyl)-3-quinolinecarboxamide], the “In Vivo MTL (Maximum tolerated dose)” value in series [1] is listed as 100. In series [2] (vero cells), the MNTC at 72 h was 25 µg/mL.
As to `NC(=O)c1cn(-c2ccccc2F)c2cc(-c3ccncc3)ccc2c1=O` [Example 34, 1,4-Dihydro-1-(2-fluorophenyl)-7-(4-pyridinyl)-4-oxo-3quinolinecarboxamide], the “In Vivo MTL (Maximum tolerated dose)” value in series [1] was determined as 100. This molecule also had an MNTC at 72 h in series [2] (vero cells) of 1.6 µg/mL.
For `CCn1cc(C(N)=O)c(=O)c2ccc(-c3cc(C)no3)cc21` [Example 23d, 1-Ethyl-1,4-dihydro-7-(3-methyl-5-isoxazolyl)-4-oxo-3-quinolinecarboxamide], in that order: greater than 200 and greater than 100 µg/mL.
In series [2] (Vero cells), `CCCCCn1cc(C(N)=O)c(=O)c2ccc(-c3ccncc3)cc21` [Example 26, 1,4-Dihydro-4-oxo-1-pentyl-7-(4-pyridinyl)-3-quinolinecarboxamide] came in with an MNTC at 72 h of 6.2 µg/mL.
In series [2] (vero cells), `O=C(NCN1CCOCC1)c1cn(-c2ccc(F)cc2)c2cc(-c3ccncc3)ccc2c1=O` [Example 4, N-(4-Morpholinylmethyl)-1-(4-fluorophenyl)-1,4-dihydro-4-oxo-7-(4-pyridinyl)-3-quinolinecarboxamide] showed an MNTC at 72 h greater than 12.5 µg/mL.
